From patent US20210221866A1, “PROTEASE-RESISTANT LIPIDATED GLP-1 ANALOGS” (MEDIMMUNE LIMITED, priority 2015, published 2021) come the findings set out here.

Molecules are shown by their SMILES. Where two headings read alike, the source gives them in different places. Numbered stars: 1 amine (or outer) side, 2 acyl side, 3 side chain; on linkers, the order of the positions; unused ones are H or OH. Square brackets hold non-standard residues; d marks the D form. Side chains are listed from the residue outwards. Peptide text beside a SMILES is read from it. * marks the point of attachment. C18 diacid = O=C(O)CCCCCCCCCCCCCCCCC(=O)*; γGlu = O=C(O)[C@H](CCC(=O)[*:2])N[*:1]; Palmitoyl = CCCCCCCCCCCCCCCC(=O)*; αMeF = C[C@](N)(Cc1ccccc1)C(=O)O; αMeK = C[C@](N)(CCCCN)C(=O)O; Lauroyl = CCCCCCCCCCCC(=O)*; αMeS = C[C@](N)(CO)C(=O)O; AEEA = NCCOCCOCC(=O)O; Aib = CC(C)(N)C(=O)O

Series [1] has as its target T1, recombinant Neprilysin (Homo sapiens, UniProt P08473).
T1 construct: purchased R&D Systems 1182-ZNC-010
Nature of the series: Proteolytic resistance to neprilysin (% remaining peptide, RP-HPLC AUC). The following applies: t = 0 (baseline); 37° C., pH 8.3; enzyme:peptide ~1:33 for non-lipidated, ~1:2.5 for lipidated peptides. It counts as in vitro ADME.
Description: Ratio enzyme (units):peptide (moles) ˜1:33. […] Ratio enzyme (units):peptide (moles) ˜1:2.5.
15 μL aliquots (˜15 ng initial peptide) of the peptide-enzyme mixture were periodically withdrawn (t=0, 30 mins, 1 hr, 2 hr, 4 hr, 8 hr, 24 hr) and quenched immediately by addition to an equal volume (15 μL) of 5% TFA (v/v) in 1:1 water/acetonitrile to arrest proteolytic activity. 20 μL aliquots (˜10 ng initial peptide) were analyzed by LC/MS and/or analytical RP-HPLC as follows: LC/MS method: Agilent Polaris C8-A column (4.6×100 mm, 3 micron) eluted with a linear binary gradient of 10-90% MeCN (0.1% TFA v/v) in water (0.1% TFA v/v) over 30 mins at 1.5 mL min-1 at ambient temperature with detection by both UV absorption at 210 nm and ionization using a Waters 3100 mass detector (ESI+ mode). Peptide fragments deriving from enzymatic hydrolysis were identified by molecular weight, allowing location of the site of cleavage. Analytical RP-HPLC method: Agilent Polaris C8-A column (4.6×100 mm, 3 micron) eluted with a linear binary gradient of 10-90% MeCN (0.1% TFA v/v) in water (0.1% TFA v/v) over either 10 or 15 mins at 1.5 mL min^−1 at 40° C. with detection by UV absorption at 210 nm. Manual integration (AUC) allowed estimation of remaining intact peptide over the time course of the experiment.
25 μL aliquots (˜6 μg initial peptide) were analyzed by LC/MS and/or analytical RP-HPLC as follows: LC/MS method: Agilent Polaris C8-A column (4.6×100 mm, 3 micron) eluted with a linear binary gradient of 10-90% MeCN (0.1% TFA v/v) in water (0.1% TFA v/v) over 30 mins at 1.5 mL min^−1 at ambient temperature with detection by both UV absorption at 210 nm and ionization using a Waters 3100 mass detector (ESI^+ mode). Peptide fragments deriving from enzymatic hydrolysis were identified by molecular weight, allowing location of the site of cleavage. Analytical RP-HPLC method: Agilent Polaris C8-A column (4.6×100 mm, 3 micron) eluted with a linear binary gradient of 10-90% MeCN (0.1% TFA v/v) in water (0.1% TFA v/v) over either 10 or 15 mins at 1.5 mL min^−1 at 40° C. with detection by UV absorption at 210 nm. Manual integration (AUC) allowed estimation of remaining intact peptide over the time course of the experiment.

For series [2], the target named is T2, porcine pancreatic pepsin (Sus scrofa, UniProt P00791).
T2 construct: purchased Sigma P7012
T2 sequence (P00791 60-385): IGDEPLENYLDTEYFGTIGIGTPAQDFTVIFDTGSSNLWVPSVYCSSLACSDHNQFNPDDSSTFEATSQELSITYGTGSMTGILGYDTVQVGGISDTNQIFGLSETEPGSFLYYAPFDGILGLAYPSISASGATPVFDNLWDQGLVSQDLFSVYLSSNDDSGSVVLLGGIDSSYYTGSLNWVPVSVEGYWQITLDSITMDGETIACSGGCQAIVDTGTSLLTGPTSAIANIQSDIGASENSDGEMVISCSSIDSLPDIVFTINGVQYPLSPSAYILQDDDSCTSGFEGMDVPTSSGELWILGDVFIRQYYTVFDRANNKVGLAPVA
Nature of the series: Proteolytic resistance to pepsin (% remaining intact peptide, RP-HPLC AUC). It is filed as in vitro ADME. The following applies: t = 0; 37° C., pH 2.0. As to the method:
Pepsin: Lyophilized porcine pancreatic pepsin (Sigma: P7012) was reconstituted to afford a solution of 200 μg/mL (˜500 units/mL) in assay buffer (0.1 M HCl, pH 2.0) to give the enzyme stock solution. […] Ratio enzyme (units):peptide (moles) ˜1:6. […] Ratio enzyme (units):peptide (μmoles) ˜2:1.
Lyophilized porcine pancreatic pepsin (Sigma: P7012) was reconstituted to […] (˜500 units/mL) in assay buffer ([…], pH 2.0) to give the enzyme stock solution.

The target in series [3] is porcine pancreatic trypsin (Sus scrofa, UniProt P00761). Nature of the series: Proteolytic resistance to trypsin (% remaining intact peptide, RP-HPLC AUC). The following applies: t = 0; 37° C., pH 7.8. It is filed as in vitro ADME.
Chain of porcine pancreatic trypsin (P00761 9-231): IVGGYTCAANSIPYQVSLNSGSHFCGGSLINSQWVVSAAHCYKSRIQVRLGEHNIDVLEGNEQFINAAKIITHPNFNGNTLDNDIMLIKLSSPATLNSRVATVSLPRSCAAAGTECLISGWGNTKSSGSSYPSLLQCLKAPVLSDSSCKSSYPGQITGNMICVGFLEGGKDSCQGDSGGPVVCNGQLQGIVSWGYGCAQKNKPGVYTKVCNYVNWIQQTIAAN
Series [4] deals with T3, human GLP-1 receptor (GLP-1R) (Homo sapiens, UniProt P43220).
T3 construct: expressed in transfected cells; host or cells: HEK293 cells or CHO cells
T3 sequence (P43220 24-463): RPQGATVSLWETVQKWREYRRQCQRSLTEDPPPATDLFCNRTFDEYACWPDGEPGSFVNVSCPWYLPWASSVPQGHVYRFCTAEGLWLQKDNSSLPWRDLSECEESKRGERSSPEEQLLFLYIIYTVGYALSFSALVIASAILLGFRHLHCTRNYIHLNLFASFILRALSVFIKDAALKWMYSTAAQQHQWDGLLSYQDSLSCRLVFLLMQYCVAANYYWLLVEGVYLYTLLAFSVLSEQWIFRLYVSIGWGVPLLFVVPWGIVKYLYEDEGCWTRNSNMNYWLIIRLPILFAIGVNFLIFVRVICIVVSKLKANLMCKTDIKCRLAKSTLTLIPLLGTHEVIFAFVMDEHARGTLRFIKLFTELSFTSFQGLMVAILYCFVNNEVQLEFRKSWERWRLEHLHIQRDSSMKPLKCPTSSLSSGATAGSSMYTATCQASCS
Description: cAMP assay, human GLP-1R cells. It is filed as cell-based. The following applies: Table 9, bis-lipidated peptides. In a few lines:
(§1)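 Peptide-stimulated cAMP measured by two-step HTRF after a 30 min room-temperature incubation with receptor-expressing cells (hGLP-1R, hGIPR at 1×10^5 cells/ml; hGCGR at 2×10^5 cells/ml). Duplicate dilutions; EC50 from 4-parameter logistic fit of % Delta F.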

For series [5], the target named is T4, human glucose-dependent insulinotropic peptide receptor (GIPR) (Homo sapiens, UniProt P48546).
T4 construct: expressed in transfected cells; host or cells: HEK293 cells or CHO cells
T4 sequence (P48546 22-466): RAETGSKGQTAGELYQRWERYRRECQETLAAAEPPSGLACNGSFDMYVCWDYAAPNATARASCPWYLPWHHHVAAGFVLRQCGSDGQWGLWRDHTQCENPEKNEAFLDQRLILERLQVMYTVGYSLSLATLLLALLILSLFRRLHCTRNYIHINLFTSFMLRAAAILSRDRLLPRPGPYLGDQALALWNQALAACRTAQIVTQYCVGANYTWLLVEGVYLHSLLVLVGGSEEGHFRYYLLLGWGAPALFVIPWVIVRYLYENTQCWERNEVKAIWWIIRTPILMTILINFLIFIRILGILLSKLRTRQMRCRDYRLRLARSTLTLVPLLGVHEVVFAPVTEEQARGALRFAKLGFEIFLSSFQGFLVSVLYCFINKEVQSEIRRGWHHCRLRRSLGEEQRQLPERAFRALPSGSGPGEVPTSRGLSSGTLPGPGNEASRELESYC
Nature of the series: cAMP assay, human GIPR cells. It counts as cell-based. The following applies: Table 9, bis-lipidated peptides. The gist of the method:
as §1

Series [6] deals with T5, GLP-1R (INS1e cells) (Rattus norvegicus, UniProt P32301).
T5 construct: endogenous in cells; host or cells: INS1e cells
T5 sequence (P32301 22-463): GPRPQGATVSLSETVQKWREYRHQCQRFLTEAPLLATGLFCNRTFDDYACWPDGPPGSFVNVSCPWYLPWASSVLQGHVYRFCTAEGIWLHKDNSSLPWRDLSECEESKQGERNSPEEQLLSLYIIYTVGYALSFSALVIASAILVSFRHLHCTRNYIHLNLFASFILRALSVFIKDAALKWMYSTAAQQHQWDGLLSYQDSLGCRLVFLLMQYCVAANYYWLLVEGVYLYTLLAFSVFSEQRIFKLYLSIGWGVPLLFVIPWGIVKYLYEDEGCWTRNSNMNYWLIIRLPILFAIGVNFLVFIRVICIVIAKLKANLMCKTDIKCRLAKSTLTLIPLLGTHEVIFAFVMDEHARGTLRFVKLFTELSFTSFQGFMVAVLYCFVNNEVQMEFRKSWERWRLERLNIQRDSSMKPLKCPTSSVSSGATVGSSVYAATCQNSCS
Description: INS1e assay, cAMP activity at GLP-1R. It counts as cell-based. The following applies: Table 10, bis-lipidated peptides.

Series [7] addresses T6, human glucagon receptor (GCGR) (Homo sapiens, UniProt P47871).
T6 construct: expressed in transfected cells; host or cells: HEK293 cells or CHO cells
Nature of the series: cAMP assay, human GCGR cells. It is filed as cell-based. The following applies: Table 9, bis-lipidated peptides. The gist of the method: as §1
Background: Cyclic AMP is a second messenger, typically raised through Gs and lowered through Gi signalling.

[8] abbreviates: mean of n1 and n2, read-out: Primary assay EC50 Mean pM GLP-1R.
Where [9] appears, read: replicate n1, read-out: Primary assay EC50 GLP-1R n1.
Setting [10] is: replicate n2, read-out: Primary assay EC50 GLP-1R n2.
Where [11] appears, read: first replicate, read-out: Primary assay EC50 GIP-R (n1).
Where [12] appears, read: second replicate, read-out: Primary assay EC50 GIP-R (n2).
The mark [13] stands for this setting: mean of n1 and n2, read-out: INS1e assay EC50 Mean pM GLP-1R.
Where [14] appears, read: replicate n1, read-out: INS1e assay EC50 GLP-1R n1.
Setting [15] is: replicate n2, read-out: INS1e assay EC50 GLP-1R n2.
Setting [16] is: first replicate, read-out: Primary assay EC50 Gluc-R (n1).
Where [17] appears, read: second replicate, read-out: Primary assay EC50 Gluc-R (n2).

T6 sequence (P47871 26-477): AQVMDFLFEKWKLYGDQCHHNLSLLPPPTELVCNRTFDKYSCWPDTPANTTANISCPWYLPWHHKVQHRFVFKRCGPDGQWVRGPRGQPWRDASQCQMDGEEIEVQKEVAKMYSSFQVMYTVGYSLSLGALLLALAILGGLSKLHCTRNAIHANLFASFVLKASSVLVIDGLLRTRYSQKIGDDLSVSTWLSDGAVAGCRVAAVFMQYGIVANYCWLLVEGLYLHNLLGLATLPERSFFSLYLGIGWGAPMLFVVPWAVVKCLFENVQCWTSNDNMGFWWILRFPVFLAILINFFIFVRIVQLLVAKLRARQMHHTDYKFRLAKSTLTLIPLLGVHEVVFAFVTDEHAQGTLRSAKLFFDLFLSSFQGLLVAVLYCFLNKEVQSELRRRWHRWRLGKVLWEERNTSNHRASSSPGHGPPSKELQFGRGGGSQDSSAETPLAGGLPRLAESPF
T1 sequence (P08473 whole entry): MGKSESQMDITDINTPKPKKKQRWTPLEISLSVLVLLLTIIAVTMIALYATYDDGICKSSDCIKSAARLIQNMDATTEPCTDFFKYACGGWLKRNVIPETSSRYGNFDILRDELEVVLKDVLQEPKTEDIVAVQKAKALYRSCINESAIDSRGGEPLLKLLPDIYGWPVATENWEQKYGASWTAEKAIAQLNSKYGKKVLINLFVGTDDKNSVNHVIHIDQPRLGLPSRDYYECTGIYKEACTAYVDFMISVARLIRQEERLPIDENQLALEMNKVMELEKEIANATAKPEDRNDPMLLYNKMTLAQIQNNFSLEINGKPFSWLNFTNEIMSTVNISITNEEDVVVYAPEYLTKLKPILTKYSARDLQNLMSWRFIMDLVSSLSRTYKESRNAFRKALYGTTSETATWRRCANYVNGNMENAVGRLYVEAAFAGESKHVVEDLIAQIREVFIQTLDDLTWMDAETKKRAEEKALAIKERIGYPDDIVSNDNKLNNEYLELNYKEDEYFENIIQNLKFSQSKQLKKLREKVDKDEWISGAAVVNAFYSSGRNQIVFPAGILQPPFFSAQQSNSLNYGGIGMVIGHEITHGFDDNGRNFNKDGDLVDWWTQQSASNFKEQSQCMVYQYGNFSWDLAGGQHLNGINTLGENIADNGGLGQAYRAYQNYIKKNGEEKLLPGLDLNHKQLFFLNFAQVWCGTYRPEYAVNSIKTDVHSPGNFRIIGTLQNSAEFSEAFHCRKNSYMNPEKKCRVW

Regarding `CC[C@H](C)[C@H](NC(=O)[C@H](Cc1ccccc1)NC(=O)[C@H](CCC(=O)O)NC(=O)[C@](C)(CCCCN)NC(=O)[C@H](C)NC(=O)[C@H](C)NC(=O)[C@H](CCC(=O)O)NC(=O)CNC(=O)[C@H](CCC(=O)O)NC(=O)[C@H](CC(C)C)NC(=O)[C@](C)(Cc1ccccc1)NC(=O)[C@H](CO)NC(=O)[C@](C)(CO)NC(=O)[C@@H](NC(=O)[C@H](CC(=O)O)NC(=O)[C@H](CO)NC(=O)[C@@H](NC(=O)[C@](C)(Cc1ccccc1)NC(=O)[C@H](CO)NC(=O)CNC(=O)[C@H](CCC(=O)O)NC(=O)C(C)(C)NC(=O)[C@@H](N)Cc1c[nH]cn1)[C@@H](C)O)C(C)C)C(=O)N[C@@H](CCCCNC(=O)COCCOCCNC(=O)COCCOCCNC(=O)CC[C@H](NC(=O)CCCCCCCCCCCCCCCCC(=O)O)C(=O)O)C(=O)N[C@@H](Cc1c[nH]c2ccccc12)C(=O)N[C@H](C(=O)N[C@H](C(=O)N[C@@H](CCC(=O)O)C(=O)NCC(=O)NCC(N)=O)C(C)C)C(C)C` [compound 68] (H-H[Aib]EGS[αMeF]TSDV[αMeS]S[αMeF]LEGEAA[αMeK]EFIK([AEEA-AEEA-γGlu-C18 diacid])WVVEGG-NH2; N-terminus assumed), the “Percentage remaining peptide (AUC at specified time-point by RP-HPLC) upon incubation with neprilysin, t = 0” value in series [1] is given as 100%. For the same compound, the “Percentage remaining intact peptide (AUC by RP-HPLC) upon incubation with pepsin” value in series [2] is recorded as 100%. The “Percentage remaining intact peptide (AUC by RP-HPLC) upon incubation with trypsin” value in series [3] stood at 100.0%.

With `CCCCCCCCCCCC(=O)N[C@@H](CCC(=O)NCCOCCOCC(=O)NCCOCCOCC(=O)NCCCC[C@H](NC(=O)[C@H](CO)NC(=O)[C@](C)(CO)NC(=O)[C@@H](NC(=O)[C@H](CC(=O)O)NC(=O)[C@H](CO)NC(=O)[C@@H](NC(=O)[C@](C)(Cc1ccccc1)NC(=O)[C@H](CO)NC(=O)CNC(=O)[C@H](CCC(=O)O)NC(=O)C(C)(C)NC(=O)[C@@H](N)Cc1c[nH]cn1)[C@@H](C)O)C(C)C)C(=O)N[C@@H](CC(C)C)C(=O)N[C@@H](CCC(=O)O)C(=O)NCC(=O)N[C@@H](CCC(=O)O)C(=O)N[C@@H](C)C(=O)N[C@@H](C)C(=O)N[C@@](C)(CCCCN)C(=O)N[C@@H](CCC(=O)O)C(=O)N[C@@H](Cc1ccccc1)C(=O)N[C@H](C(=O)N[C@@H](C)C(=O)N[C@@H](Cc1c[nH]c2ccccc12)C(=O)N[C@@H](CCCCNC(=O)COCCOCCNC(=O)COCCOCCNC(=O)CC[C@H](NC(=O)CCCCCCCCCCC)C(=O)O)C(=O)N[C@H](C(=O)N[C@@H](CCC(=O)O)C(=O)NCC(=O)NCC(N)=O)C(C)C)[C@@H](C)CC)C(=O)O` [compound 264] (H-H[Aib]EGS[αMeF]TSDV[αMeS]SK([AEEA-AEEA-γGlu-Lauroyl])LEGEAA[αMeK]EFIAWK([AEEA-AEEA-γGlu-Lauroyl])VEGG-NH2; N-terminus assumed), the EC50 (as a rule, the midpoint of the concentration-response curve) is 12.8 pM in series [4] (setting [8]); 18.2 pM in series [4] (setting [9]); 7.37 pM in series [4] (setting [10]); no less than 22.6 nM in series [5] (setting [11]); no less than 22.6 nM in series [5] (setting [12]); 1030 pM in series [6] (setting [13]). Also, the EC50 in series [6] (setting [14]) was 963 pM; in series [6] (setting [15]) it was 1100 pM; in series [7] (setting [16]), no less than 22.6 nM; in series [7] (setting [17]), no less than 22.6 nM.

As for `CCCCCCCCCCCC(=O)N[C@@H](CCC(=O)NCCOCCOCC(=O)NCCOCCOCC(=O)NCCCC[C@H](NC(=O)[C@H](Cc1ccc(O)cc1)NC(=O)[C@H](CO)NC(=O)[C@](C)(CO)NC(=O)[C@@H](NC(=O)[C@H](CC(=O)O)NC(=O)[C@H](CO)NC(=O)[C@@H](NC(=O)[C@](C)(Cc1ccccc1)NC(=O)[C@H](CO)NC(=O)CNC(=O)[C@H](CCC(=O)O)NC(=O)C(C)(C)NC(=O)[C@@H](N)Cc1c[nH]cn1)[C@@H](C)O)C(C)C)C(=O)N[C@@H](CCC(=O)O)C(=O)NCC(=O)N[C@@H](CCC(=O)O)C(=O)N[C@@H](C)C(=O)N[C@@H](C)C(=O)N[C@@](C)(CCCCN)C(=O)N[C@@H](CCC(=O)O)C(=O)N[C@@H](Cc1ccccc1)C(=O)N[C@H](C(=O)N[C@@H](CCCCNC(=O)COCCOCCNC(=O)COCCOCCNC(=O)CC[C@H](NC(=O)CCCCCCCCCCC)C(=O)O)C(=O)N[C@@H](Cc1c[nH]c2ccccc12)C(=O)N[C@H](C(=O)N[C@H](C(=O)N[C@@H](CCC(=O)O)C(=O)NCC(=O)NCC(N)=O)C(C)C)C(C)C)[C@@H](C)CC)C(=O)O` [compound 268] (H-H[Aib]EGS[αMeF]TSDV[αMeS]SYK([AEEA-AEEA-γGlu-Lauroyl])EGEAA[αMeK]EFIK([AEEA-AEEA-γGlu-Lauroyl])WVVEGG-NH2; N-terminus assumed), the EC50 in series [4] (setting [8]) was 4.8 pM; in series [4] (setting [9]) it was 4.46 pM; in series [4] (setting [10]), 5.05 pM; in series [5] (setting [11]) it was no less than 22.2 nM; in series [5] (setting [12]), no less than 22.2 nM; in series [6] (setting [13]), 1160 pM. Moreover, the EC50 in series [6] (setting [14]) is 1090 pM; in series [6] (setting [15]) it was 1230 pM; in series [7] (setting [16]) it was no less than 22.2 nM; in series [7] (setting [17]), no less than 22.2 nM.

`CCCCCCCCCCCCCCCC(=O)NCCCC[C@H](NC(=O)CNC(=O)CNC(=O)[C@](C)(CCCCN)NC(=O)[C@@H](NC(=O)[C@@H](NC(=O)[C@](C)(Cc1ccccc1)NC(=O)[C@H](C)NC(=O)[C@@H](NC(=O)[C@](C)(Cc1ccccc1)NC(=O)[C@H](CCC(=O)O)NC(=O)[C@](C)(CCCCN)NC(=O)[C@H](C)NC(=O)[C@H](C)NC(=O)[C@H](CCC(N)=O)NC(=O)CNC(=O)[C@H](CCC(=O)O)NC(=O)[C@H](CC(C)C)NC(=O)[C@](C)(Cc1ccccc1)NC(=O)[C@H](CO)NC(=O)[C@H](CO)NC(=O)[C@@H](NC(=O)[C@H](CC(=O)O)NC(=O)[C@H](CO)NC(=O)[C@@H](NC(=O)[C@](C)(Cc1ccccc1)NC(=O)[C@H](CO)NC(=O)CNC(=O)[C@H](CCC(=O)O)NC(=O)C(C)(C)NC(=O)[C@@H](N)Cc1c[nH]cn1)[C@@H](C)O)C(C)C)[C@@H](C)CC)C(C)C)C(C)C)C(N)=O` [compound 489] (H-H[Aib]EGS[αMeF]TSDVSS[αMeF]LEGQAA[αMeK]E[αMeF]IA[αMeF]VV[αMeK]GGK(Palmitoyl)-NH2): the “Percentage remaining peptide (AUC at specified time-point by RP-HPLC) upon incubation with neprilysin, t = 0” value in series [1] stood at 100%. Moreover, the “Percentage remaining intact peptide (AUC by RP-HPLC) upon incubation with pepsin” value in series [2] amounted to 100%. Further, the “Percentage remaining intact peptide (AUC by RP-HPLC) upon incubation with trypsin” value in series [3] is reported as 100%.
